As usually defined, the Kd is a measure of binding affinity in units of concentration. Usually LogP stands for the decadic logarithm of the partition coefficient of the neutral form, usually between octanol and water. The term mortality denotes the percentage killed. Read a low mortality as a weak lethal effect. A word on the IC50: it is the concentration needed to halve the response being measured. Low values mean inhibition by little substance, high ones a need for much substance. As usually defined, the Ki is a dissociation constant, usually derived from enzyme kinetics or from competition with a known ligand.

Each structure is given as a SMILES string.

The target in the first data set is LdecOBP33. The data set is described as follows: Saturation fluorescence binding assay of 1-NPN with recombinant LdecOBP33. Further details: species or system Leptinotarsa decemlineata. To be noted: 2 µM LdecOBP33, 1-NPN 0-25 µM, 20 mM Tris pH 7.4, 25 °C; one-site saturation binding accounting for ligand depletion; read-out: dissociation constant (Kd). The procedure: (§1) N-phenyl-1-naphthylamine (1-NPN) was used as a fluorescent reporter to assess the ligand-binding affinity of LdecOBP33 toward various plant volatiles and pesticides; this was chosen due to its reported success in prior studies. […] Each assay was performed at 25 ± 1 °C in a 96-well flat-bottom black plate with a final volume of 200 µL and 3 replicates. The relative fluorescence intensity was measured with a 337 nm/10 nm excitation filter and a 413 nm/10 nm emission filter, using a multi-mode Tecan Spark® plate reader. […] The equation Ki=IC50/(1+NPN/KdNPN) was used to calculate the Ki values of the competitor ligands.
Take `c1ccc(Nc2cccc3ccccc23)cc1` [1-NPN, N-phenyl-1-naphthylamine]: the Kd worked out at 4.53 ± 0.31 µM.

The subject of the next data set is CPB. The data set is described as follows: Baseline mortality exposure to imidacloprid in adults, resistant vs susceptible strains. It counts as in vivo, Leptinotarsa decemlineata.
Conditions: not given
The source says: Two different populations of CPBs were used for this study. The susceptible CPB population was purchased from French Agricultural Research (Lamberton, MN, USA). This population was initially collected in 2003 from Long Island, NY; following this, it was reared in laboratory conditions with no pesticide exposure. Neonicotinoid-resistant CPBs were collected from the University of Maine Aroostook Research Farm (Presque Isle, ME, USA). Baseline mortality exposure to imidacloprid in adults indicated a ~30-fold resistance ratio between the resistant and susceptible strains. Both CPB populations were reared in a Penn State facility greenhouse at 25 ± 1 °C under a 16:8 L/D photoperiod. Beetles were fed a constant supply of Red Norland potato plants and housed in insect and butterfly habitat cages (Restcloud, Guangzhou, China). Eggs were collected from plants and stored in Petri dishes maintained at 25 ± 1 °C and 60 ± 5% humidity under a 16:8 L/D photoperiod, located within a rearing room. Newly emerged first-instar larvae fed upon fresh potato plant leaflets up to the third instar and were then transferred back to the greenhouse.
Take `O=[N+]([O-])NC1=NCCN1Cc1ccc(Cl)nc1` [Imidacloprid]: the “resistance ratio between the resistant and susceptible strains” value is ~ 30 fold.

Test system in the next data set: not given
Assay: not given
To be noted: ref PubChem database (accessed on 31 October 2025); cited from earlier work.
With `O=[N+]([O-])NC1=NCCN1Cc1ccc(Cl)nc1` [Imidacloprid], the LogP is listed as 0.57.
On to `COP(=S)(OC)Oc1nc(Cl)c(Cl)cc1Cl` [Chlorpyrifos-methyl], for which the LogP is given as 4.30.
With `CN/C(=N\[N+](=O)[O-])NCc1cnc(Cl)s1` [Clothianidin], the LogP is given as 0.70.
Turning to `CC(C)=CC1C(C(=O)OCN2C(=O)C3=C(CCCC3)C2=O)C1(C)C` (stereo not shown) [Tetramethrin], the LogP is on record as 4.70.
Take `CCC/C=C/C=O` [(E)-2-Hexenal]: the LogP is recorded as 1.50.
For the molecule `CCCCCCCCC=O` [Nonanal], the LogP is given as 3.30.
For the molecule `CCOP(=S)(OCC)Oc1nc(Cl)c(Cl)cc1Cl` [Chlorpyrifos], the LogP is reported as 4.96.
`CC/C=C/CCO` [(E)-3-Hexen-1-ol]: the LogP is recorded as 1.30.
Consider `COC(=O)c1ccccc1O` [Methyl salicylate], for which the LogP is 2.50.

The subject of the next data set is CPB. Briefly: Whole-antenna contact bioassay with imidacloprid. To be noted: by 120 h. In kind it is in vivo, Leptinotarsa decemlineata. The procedure:
After feeding with RNAi, the control or LdecOBP33 knockdown male CPBs were placed individually into fresh Petri dishes and anesthetized on ice for 10 min. Afterwards, 0.5 µL of an imidacloprid solution (Sigma Aldrich, St. Louis, MO, USA)—at various concentrations—in acetone was topically applied to each antenna of each CPB using a Hamilton 25 µL model #702 syringe (Hamilton, Reno, NV, USA). Care was taken to ensure that the pesticide solution was applied exclusively to the antennae. […] After treatment, all CPBs were placed in a fresh Petri dish with fresh potato leaves; the dish was kept in a rearing room maintained at 25 ± 1 °C, 60 ± 5% humidity, and a 16:8 L/D photoperiod. CPB mortality was assessed at 0, 3, 6, and 12 h, and every 12 h thereafter, for a total of five days post-treatment. The determination of recovery for individual CPBs after pesticide treatment was adapted from prior studies using three criteria. […] Second, beetles were placed prone and given two minutes to flip upright; those unable to do so were classified as dead. Finally, beetles were placed upside down on the handle of a paintbrush to assess their mobility; individuals that could not walk their full body length or fell off were considered dead. Six biological replicates were conducted, each consisting of 8–10 beetles.
On to `O=[N+]([O-])NC1=NCCN1Cc1ccc(Cl)nc1` [Imidacloprid], for which the “increase of mortality, dsLdecOBP33-treated vs control” value came to 19%.

The data set is the same for the next values; noted with them: control (dsGFP) resistant males, after 36 h; 0.5 µL of 0.45 µg/µL per antenna.
`O=[N+]([O-])NC1=NCCN1Cc1ccc(Cl)nc1` [Imidacloprid] registered a mortality of 55%.

The same data set, now with this note: control (dsGFP) resistant males, by 120 h; 0.5 µL of 0.45 µg/µL per antenna.
Take `O=[N+]([O-])NC1=NCCN1Cc1ccc(Cl)nc1` [Imidacloprid]: the average mortality is recorded as 12%.

The data set is the same for the next values; noted with them: dsLdecOBP33-KD resistant males, after 36 h; 0.5 µL of 0.45 µg/µL per antenna.
In the case of `O=[N+]([O-])NC1=NCCN1Cc1ccc(Cl)nc1` [Imidacloprid], the mortality was 81%.

The data set is the same for the next values; noted with them: dsLdecOBP33-treated resistant males, by 120 h; 0.5 µL of 0.45 µg/µL per antenna.
`O=[N+]([O-])NC1=NCCN1Cc1ccc(Cl)nc1` [Imidacloprid] displayed an average mortality of 32%.

The same data set, now with this note: preliminary tests; 0.5 µL application in acetone to each antenna.
Regarding `O=[N+]([O-])NC1=NCCN1Cc1ccc(Cl)nc1` [Imidacloprid], the LD50 is given as 0.45 µg/µL.

In a further data set the target is LdecOBP33. The data set is described as follows: Competitive fluorescence displacement binding assay (1-NPN reporter). Further details: species or system Leptinotarsa decemlineata. The settings on record: 2 µM LdecOBP33, 2 µM 1-NPN, competitor 0-450 µM, 20 mM Tris pH 7.4, 25 °C; mean ± SE (n = 3). Here is the method:
as §1
With `OC[C@H]1OC(O)[C@H](O)[C@@H](O)[C@@H]1O` (stereo partly drawn) [D-Glucose], the IC50 is greater than 450 µM.
Same read-out and setting: as for `O=[N+]([O-])NC1=NCCN1Cc1ccc(Cl)nc1` [Imidacloprid], the figure is 263 ± 15.2 µM.
The molecule `COP(=S)(OC)Oc1nc(Cl)c(Cl)cc1Cl` [Chlorpyrifos-methyl] registered a half-inhibitory concentration (IC50) of 63.7 ± 3.32 µM.
Same read-out and setting: with `CC/C=C\CCOC(=O)CCC` [(Z)-3-Hexenyl-butyrate] the figure was 24 ± 2.05 µM; with `CN/C(=N\[N+](=O)[O-])NCc1cnc(Cl)s1` [Clothianidin], 94.5 ± 4.24 µM; with `CNC(=O)Oc1cccc2ccccc12` [Carbaryl], greater than 450 µM.
Same read-out and setting: as for `C=C[C@](C)(O)CCC=C(C)C` [L-Linalool], the figure is 48.3 ± 1.77 µM; as for `CC(C)=CC1C(C(=O)OCN2C(=O)C3=C(CCCC3)C2=O)C1(C)C` (stereo not shown) [Tetramethrin], 29.1 ± 1.78 µM; as for `CCC/C=C/C=O` [(E)-2-Hexenal], 401 ± 16.3 µM.
On to `CCCCCCCCC=O` [Nonanal], for which the IC50 stood at 7.29 ± 0.53 µM.
In turn, `CCOP(=S)(OCC)Oc1nc(Cl)c(Cl)cc1Cl` [Chlorpyrifos] gave an IC50 of 45.8 ± 3.53 µM.
Same read-out and setting: with `CC/C=C/CCO` [(E)-3-Hexen-1-ol] the figure was greater than 450 µM; with `COC(=O)c1ccccc1O` [Methyl salicylate], 396 ± 20 µM.

The data set is the same for the next values; noted with them: 2 µM LdecOBP33, 2 µM 1-NPN, competitor up to 450 µM.
Take `OC[C@H]1OC(O)[C@H](O)[C@@H](O)[C@@H]1O` (stereo partly drawn) [D-Glucose]: the “displacement of the 1-NPN probe” value is listed as “No noticeable displacement”.
On the same count and under the same terms, with `O=[N+]([O-])NC1=NCCN1Cc1ccc(Cl)nc1` [Imidacloprid] the entry was “over 50%”.
Same read-out and setting: as for `COP(=S)(OC)Oc1nc(Cl)c(Cl)cc1Cl` [Chlorpyrifos-methyl], the entry is “over 50%”; as for `CC/C=C\CCOC(=O)CCC` [(Z)-3-Hexenyl-butyrate], “over 50%”; as for `CN/C(=N\[N+](=O)[O-])NCc1cnc(Cl)s1` [Clothianidin], “over 50%”.
The same measure, in the same setting: with `CNC(=O)Oc1cccc2ccccc12` [Carbaryl] the entry was “No noticeable displacement”; with `C=C[C@](C)(O)CCC=C(C)C` [L-Linalool], “over 50%”; with `CC(C)=CC1C(C(=O)OCN2C(=O)C3=C(CCCC3)C2=O)C1(C)C` (stereo not shown) [Tetramethrin], “over 50%”.
In the case of `CCC/C=C/C=O` [(E)-2-Hexenal], the “displacement of the 1-NPN probe” value is “over 50%”.
Consider `CCCCCCCCC=O` [Nonanal], for which the “displacement of the 1-NPN probe” value was “over 50%”.
The same measure, in the same setting: as for `CCOP(=S)(OCC)Oc1nc(Cl)c(Cl)cc1Cl` [Chlorpyrifos], the entry is “over 50%”; as for `CC/C=C/CCO` [(E)-3-Hexen-1-ol], “No noticeable displacement”; as for `COC(=O)c1ccccc1O` [Methyl salicylate], “over 50%”.

Staying with this data set, now noted: calculated from IC50 with Cheng and Prusoff equation, Ki=IC50/(1+NPN/KdNPN).
As for `OC[C@H]1OC(O)[C@H](O)[C@@H](O)[C@@H]1O` (stereo partly drawn) [D-Glucose], the Ki is greater than 338 µM.
On the same count and under the same terms, as for `O=[N+]([O-])NC1=NCCN1Cc1ccc(Cl)nc1` [Imidacloprid], the figure is 197 µM; as for `COP(=S)(OC)Oc1nc(Cl)c(Cl)cc1Cl` [Chlorpyrifos-methyl], 47.8 µM.
The same measure, in the same setting: as for `CC/C=C\CCOC(=O)CCC` [(Z)-3-Hexenyl-butyrate], the figure is 18 µM; as for `CN/C(=N\[N+](=O)[O-])NCc1cnc(Cl)s1` [Clothianidin], 71 µM.
Same read-out and setting: with `CNC(=O)Oc1cccc2ccccc12` [Carbaryl] the figure was greater than 338 µM; with `C=C[C@](C)(O)CCC=C(C)C` [L-Linalool], 36.2 µM; with `CC(C)=CC1C(C(=O)OCN2C(=O)C3=C(CCCC3)C2=O)C1(C)C` (stereo not shown) [Tetramethrin], 21.8 µM.
On to `CCC/C=C/C=O` [(E)-2-Hexenal], for which the Ki was 301 µM.
Still for that read-out and setting: with `CCOP(=S)(OCC)Oc1nc(Cl)c(Cl)cc1Cl` [Chlorpyrifos] the figure was 34.4 µM; with `CC/C=C/CCO` [(E)-3-Hexen-1-ol], greater than 338 µM; with `COC(=O)c1ccccc1O` [Methyl salicylate], 298 µM.

(Values after article PMC12733967, “Pleiotropic Function of Antenna-Specific Odorant-Binding Protein Links Xenobiotic Adaptation and Olfaction in Leptinotarsa decemlineata” (Insects, 2025).)
